From article PMC6269914, “In Vitro Evaluation of Novel Inhibitors against the NS2B-NS3 Protease of Dengue Fever Virus Type 4” (Molecules, 2013)

What was measured:
DENV4 NS2B-NS3pro [1] = target: T1, DENV4 NS2B-NS3pro (Dengue virus type 4, UniProt Q2YHF0, DELINS1442-1474GGGGSGGGG); assay: In vitro inhibition assay of recombinant NS2B-NS3pro with fluorogenic AMC peptide substrate; assay type: biochemical, dengue virus type 4 (DENV4); settings: primary inhibition assay at a 100 μM concentration of inhibitors; Table S1
DENV4 NS2B-NS3pro [2] = target: T1, DENV4 NS2B-NS3pro; assay: Inhibitor enzyme kinetics (Lineweaver-Burk and Dixon plots) against NS2B-NS3pro; assay type: biochemical, dengue virus type 4 (DENV4); settings: AMC peptide substrates
Method: Inhibitory kinetic experiments were performed at different constant inhibitor concentrations and different substrate concentrations. Lineweaver–Burk and Dixon plots were used to analyze the inhibition modes of these compounds. Ki values were calculated from the Dixon plots.
The type of inhibition was determined using Lineweaver–Burk plots, and Ki values were determined with a Dixon plot (1/v as a function of [I], inhibitor concentration) from different inhibitor concentrations.

T1 sequence (Q2YHF0 1475-1660, added parts left off, stated change not applied): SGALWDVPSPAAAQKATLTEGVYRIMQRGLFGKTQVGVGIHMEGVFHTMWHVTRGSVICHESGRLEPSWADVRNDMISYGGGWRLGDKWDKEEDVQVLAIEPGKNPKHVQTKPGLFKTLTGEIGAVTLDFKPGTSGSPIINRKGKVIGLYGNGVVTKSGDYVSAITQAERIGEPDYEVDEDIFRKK

Compound	Inhibition Activity (DENV4 NS2B-NS3pro [1]) [%]	Inhibition mode (DENV4 NS2B-NS3pro [2])
CCN(CC)CCn1c(NC(=O)c2ccc(Cn3nc([N+](=O)[O-])c(Cl)c3C)o2)nc2ccccc21 [Compound 2, 5-((4-chloro-5-methyl-3-nitro-1H-pyrazol-1-yl)methyl)-N-(1-(2-(diethylamino)ethyl)-1H-benzo[d]imidazol-2-yl)furan-2-carboxamide]	95.23	competitive inhibitors
CC(=O)N1N=C(c2cc(-c3ccccc3)nc3ccccc23)OC1c1ccc(C(=O)O)cc1 (centres unmarked) [Compound 14, 4-(3-acetyl-5-(2-phenylquinolin-4-yl)-2,3-dihydro-1,3,4-oxadiazol-2-yl)benzoic acid]	98.15	competitive inhibitors
Cc1cccc(C)c1-n1c(SCc2cc(=O)n3cc(Cl)ccc3n2)nc2c(sc(=S)n2-c2c(C)cccc2C)c1=O [Compound 22, 5-[[(7-chloro-4-oxo-4H-pyrido[1,2-a]pyrimidin-2-yl)methyl)sulfanyl)-3,6-bis(2,6-dimethylphenyl)-2-thioxo-2,3-dihydro[1,3]thiazolo[4,5-d]pyrimidin-7(6H)-one]	91.65	competitive inhibitors
4-((4aR,5R,5aR,8aR,9S)-10-(4-(tert-butyl)phenyl)-2,6,8-trioxo-2,3,4a,5,5a,6,8a,9,9a,10-decahydro-5,9-methanothiazolo[5',4':5,6]thiopyrano[2,3-f]isoindol-7(8H)-yl)butanoic acid [Compound 11]	12.46	
N-cycloheptyl-2,5-dimethyl-4-(4-(pyridin-2-yl)piperazin-1-yl)thieno[2,3-d]pyrimidine-6-carboxamide [Compound 28]	32.84	
O=C1c2ccccc2C(=O)N1c1cccc(-c2csc(N3N=C(c4ccccc4)CC3c3ccccc3)n2)c1 (centres unmarked) [Compound 21, 2-(3-(2-(3,5-diphenyl-4,5-dihydro-1H-pyrazol-1-yl)thiazol-4-yl)phenyl)isoindoline-1,3-dione]	21.27	
N-(4-((2-(benzo[d][1,3]dioxol-5-yl)-1,3-dioxoisoindolin-5-yl)oxy)phenyl)-1-oxo-4-phenyl-1H-isochromene-3-carboxamide [Compound 20]	28.87	
4-(2,6-bis(3-hydroxyphenyl)-1,3,5,7-tetraoxo-1,2,3,5,6,7-hexahydropyrrolo[3,4-f]isoindole-4-carbonyl)benzoic acid [Compound 1]	15.05	
